Where a name gives a salt, the structure may show the parent alone. Read-outs that look alike come from different tables or passages of the source.

Here are results for 16 molecules from patent EP2608671B1, “COMPOUNDS FOR TREATMENT OF CANCER” (Gtx, Inc., priority 2010, dated 2012).

One data set deals with B16-F1. Description: SRB cell growth inhibition (cytotoxicity) assay. It counts as cell-based, mouse. The text has this: (§1) The only compounds which belong to the invention are the ones falling under the scope of formula (XI).
The test system of another data set is DU 145. Nature of the data set: cells. The conditions noted are these: Homo sapiens.
In a further data set the test system is PC-3. Nature of the data set: cells. To be noted: Homo sapiens.
Description: as §1
Cells were stained with SRB solution.
Cells. […] Cells between the third and fifth passages were used for experiments.
Cell growth inhibition studies. […] Cells were stained with sulphorhodamine B (SRB) solution.

For the next data set, the system named is PPC-1. Description: cells. To be noted: Homo sapiens.
The subject of another data set is A375. Description: SRB cell growth inhibition (cytotoxicity) assay. It counts as cell-based, human.
Data set [1] deals with melanoma cell lines (A375, WM-164, B16-F1) and prostate cancer cell lines (LNCaP, DU 145, PC-3, PPC-1). Nature of the data set: SRB cytotoxicity, melanoma and prostate cell panel (averages). It counts as cell-based. The conditions noted are these: for antiproliferative activity: summary of Table 3.
Description: as §1

The subject of a further data set is LNCaP. Nature of the data set: cells. To be noted: Homo sapiens.
The conditions of data set [2]: rat; for CL (mL/min/kg), systemic clearance / Vss (L/kg), volume of distribution: IV, […] (1h, 2r), 5 mg/kg (5Ha, 5Hc); for F (%), percent oral bioavailability: Table 4, 10 mg/kg.
Another data set deals with OVCAR-8. Nature of the data set: SRB growth inhibition, MDR model parent line. It counts as cell-based, human. To be noted: Homo sapiens, OVCAR-8; Table 5A; read-out: IC50 (nM), OVCAR-8.
Another data set concerns NCI/ADR-RES. Nature of the data set: SRB growth inhibition, P-gp over-expressing MDR line. It counts as cell-based, human.
The next data set relates to WM-164. Nature of the data set: SRB cell growth inhibition (cytotoxicity) assay. It counts as cell-based, human. The conditions noted are these: Homo sapiens.
Setting [3] is: Mus musculus, B16-F1; read-out: IC50 ± SEM (nM), B16-F1.
Setting [4] is: DU-145, 96 h, read-out: IC50 ± SEM (nM), DU 145.
The mark [5] stands for this setting: PC-3, 96 h, read-out: IC50 ± SEM (nM), PC-3.
The mark [6] stands for this setting: PPC-1, 96 h, read-out: IC50 ± SEM (nM), PPC-1.
Setting [7] is: Homo sapiens, A-375, 96 h; read-out: IC50 ± SEM (nM), A375.
[8] abbreviates: Prostate cell, Table 2, read-out: IC50 range over tested melanoma and prostate cell lines.
[9] abbreviates: 96 h, read-out: IC50 ± SEM (nM), LNCaP.
Where [10] appears, read: WM164 melanoma cells, 48 h, SRB, read-out: IC50 ± SEM (nM) WM164.
[11] abbreviates: Mus musculus; B16-F1 melanoma cells, 48 h, SRB; read-out: IC50 ± SEM (nM) B16-F1.
Where [12] appears, read: DU-145, 96 h, read-out: IC50 ± SEM (nM) Du 145.
The mark [13] stands for this setting: Homo sapiens, A-375; A375 melanoma cells, 48 h, SRB; read-out: IC50 ± SEM (nM) A375.
Where [14] appears, read: ABI compounds, Tables 11-13, read-out: IC50 (average over cell lines).
[15] abbreviates: Prostate cell, read-out: IC50 (average over cell lines).

On to `COc1cc(/C(=N/O)c2csc(-c3ccccc3)n2)cc(OC)c1OC` [2e-cis, (Z)-(2-Phenylthiazol-4-yl)(3,4,5-trimethoxyphenyl)methanone oxime], for which the IC50 is 300 ± 100 nM in the data set on B16-F1 (setting [3]); 102 nM in the data set on DU 145 (setting [4]); 120 nM in the data set on PC-3 (setting [5]); 160 nM with PPC-1 (setting [6]); 200 ± 100 nM in the data set with A375 (setting [7]); 100 to 300 nM in [1] (setting [8]). Further, the IC50 with LNCaP (setting [9]) turned out to be 189 nM.
Regarding `COc1cc(/C(=N\O)c2csc(-c3ccccc3)n2)cc(OC)c1OC` [2e-trans, (E)-(2-Phenylthiazol-4-yl)(3,4,5-trimethoxyphenyl)methanone oxime], the IC50 with B16-F1 (setting [3]) was 11400 ± 2100 nM; with DU 145 (setting [4]) it was > 10000 nM; in the data set with PC-3 (setting [5]), > 10000 nM; in the data set with PPC-1 (setting [6]), > 10000 nM; in the data set on A375 (setting [7]), 7800 ± 1200 nM; in [1] (setting [8]), > 10000 nM. In addition, in the data set with LNCaP (setting [9]), the IC50 was > 10000 nM.
`CNCc1ccc(-c2nc(C(=O)c3cc(OC)c(OC)c(OC)c3)cs2)cc1.Cl` [2s, (2-(4-((Methylamino)methyl)phenyl)thiazol-4-yl)(3,4,5-trimethoxyphenyl)methanone hydrochloride]: the IC50 in the data set on B16-F1 (Mus musculus, B16-F1, read-out: IC50 ± SEM (nM), B16-F1) is > 10000 nM; in the data set with DU 145 (setting [4]), ~10000 nM; with PC-3 (setting [5]), > 10000 nM; in the data set with PPC-1 (setting [6]), ~1000 nM; in the data set on A375 (Homo sapiens, A-375, 96 h, read-out: IC50 ± SEM (nM), A375), > 10000 nM; in the data set with LNCaP (setting [9]), 114 ± 80 nM. Also, the “antiproliferative activity” value in data set [1] is on record as “abrogated activity”.
Consider `COc1cc(C(=O)c2csc(-c3ccc(CN(C)C)cc3)n2)cc(OC)c1OC.Cl` [2u, (2-(4-((Dimethylamino)methyl)phenyl)thiazol-4-yl)(3,4,5-trimethoxyphenyl)methanone hydrochloride], for which the IC50 with B16-F1 (setting [3]) is > 10000 nM; with DU 145 (setting [4]), > 10000 nM; in the data set on PC-3 (setting [5]) it was > 10000 nM; in the data set with PPC-1 (setting [6]), > 10000 nM; in the data set with A375 (setting [7]), > 10000 nM; in the data set on LNCaP (setting [9]), 1020 ± 200 nM. In data set [1], the “antiproliferative activity” value is reported as “abrogated activity”.
For `COc1cc(C(=O)c2csc(Nc3ccccc3)n2)cc(OC)c1OC.Cl` [5Ha, (2-(Phenylamino)thiazol-4-yl)(3,4,5-trimethoxyphenyl)methanone hydrochloride salt], in [2], the “CL (mL/min/kg), systemic clearance” value is given as 17 ± 3 mL/min/kg; the “Vss (L/kg), volume of distribution” value stood at 1.4 ± 0.2 L/kg; the “F (%), percent oral bioavailability” value is reported as 11%.
As to `COc1cc(C(=O)c2csc(Nc3ccc(F)cc3)n2)cc(OC)c1OC.Cl` [5Hc, (2-(p-Fluorophenylamino)thiazol-4-yl)(3,4,5-trimethoxyphenyl)methanone hydrochloride salt], in data set [2], the “CL (mL/min/kg), systemic clearance” value was 13 ± 2 mL/min/kg; the “Vss (L/kg), volume of distribution” value is 1.4 ± 0.2 L/kg; the “F (%), percent oral bioavailability” value stood at 21%. In addition, in [2] (in vivo, po), the “increased exposure (AUC) by the oral route as compared to 1h” value is “more than 4.3 fold”.
For the molecule `COc1cc(C(=O)c2csc(Nc3ccc(C)cc3)n2)cc(OC)c1OC` [5b, (2-(p-Tolylamino)thiazol-4-yl)(3,4,5-trimethoxyphenyl)methanone], the IC50 in the data set with OVCAR-8 came to 28 nM; in the data set on NCI/ADR-RES (Homo sapiens, NCI/ADR-RES, P-gp over-expressed MDR cell line, Table 5A, read-out: IC50 (nM), NCI/ADR-RES) it was 21 nM. In the data set with NCI/ADR-RES (NCI/ADR-RES vs OVCAR-8, 5760 min), this molecule had a Resistance factor of 0.8.
With `O=C(c1ccc(F)cc1)c1cn(S(=O)(=O)c2ccccc2)c(-c2ccc(OCc3ccccc3)cc2)n1` [11jb, (2-(4-(benzyloxy)phenyl)-1-(phenylsulfonyl)-1H-imidazol-4-yl)(4-fluorophenyl)methanone], the IC50 was found to be 48 ± 5 nM with WM-164 (setting [10]); 110 ± 15 nM in the data set with B16-F1 (setting [11]); 58 ± 1 nM in the data set with DU 145 (setting [12]); 75 ± 0.5 nM with PC-3 (setting [5]); 38 ± 0.2 nM with PPC-1 (setting [6]); 64 ± 7 nM with A375 (setting [13]). Moreover, the IC50 in [1] (Prostate cell, ABI compounds, Tables 11-13, read-out: IC50 (average over cell lines)) was 61 nM; in the data set on LNCaP (setting [9]), 35 ± 1 nM.
Consider `COc1cc(C(=O)c2c[nH]c(-c3ccccc3)n2)cc(OC)c1OC` [12aa, (2-phenyl-1H-imidazol-4-yl)(3,4,5-trimethoxyphenyl)methanone], for which the IC50 in the data set with WM-164 (WM164, 48 h, read-out: IC50 (nM), WM164) is 10 nM; in the data set on B16-F1 (Mus musculus, B16-F1, 48 h, read-out: IC50 (nM), B16-F1) it was 120 nM; with DU 145 (DU-145, 96 h, read-out: IC50 (nM), Du 145), 196 nM; in the data set with PC-3 (PC-3, 96 h, read-out: IC50 (nM), PC-3), 288 nM; in the data set on PPC-1 (PPC-1, 96 h, read-out: IC50 (nM), PPC-1), 133 nM; in the data set with A375 (Homo sapiens, A-375, 48 h, read-out: IC50 (nM), A375), 160 nM. The IC50 in [1] (setting [14]) worked out at 160 nM; in the data set on LNCaP (96 h, read-out: IC50 (nM), LNCaP), 152 nM.
On to `Cc1ccc(-c2nc(C(=O)c3ccc(F)cc3)c[nH]2)cc1` [12db-HCl, (4-fluorophenyl)(2-(p-tolyl)-1H-imidazol-4-yl)methanone HCl salt], for which the IC50 in the data set with A375 (Homo sapiens, A-375, 48 h, read-out: IC50 ± SEM (nM) A375, A375 melanoma cells, 48 h, SRB) amounted to 108 ± 11 nM; in [1] (ABI compounds, Tables 11-13, HCl salt, read-out: IC50 (average over cell lines)), 172 nM.
`COc1cc(C(=O)c2c[nH]c(-c3cc(OC)c(OC)c(OC)c3)n2)cc(OC)c1OC` [12ea, (3,4,5-trimethoxyphenyl)(2-(3,4,5-trimethoxyphenyl)-1H-imidazol-4-yl)methanone]: the IC50 (in the data set with DU 145 (setting [12]); in the data set with PC-3 (setting [5]); in the data set with PPC-1 (setting [6]); in data set [1] (setting [15]); in the data set on LNCaP (setting [9])) was > 10000 nM each time.
As for `COc1cc(-c2nc(C(=O)c3ccc(F)cc3)c[nH]2)cc(OC)c1OC` [12eb, (4-fluorophenyl)(2-(3,4,5-trimethoxyphenyl)-1H-imidazol-4-yl)methanone], the IC50 (in the data set on DU 145 (setting [12]); in the data set on PC-3 (setting [5]); in the data set with PPC-1 (setting [6]); in [1] (setting [15]); in the data set on LNCaP (setting [9])) was > 10000 nM each time.
With `COc1ccc(-c2nc(C(=O)c3cc(OC)c(OC)c(OC)c3)c[nH]2)cc1OC` [12ha, (2-(3,4-dimethoxyphenyl)-1H-imidazol-4-yl)(3,4,5-trimethoxyphenyl)methanone], the IC50 in the data set with WM-164 (WM164, 48 h, read-out: IC50 ± SEM (nM) WM164) was determined as 191 ± 18 nM; in the data set with B16-F1 (Mus musculus, B16-F1, 48 h, read-out: IC50 ± SEM (nM) B16-F1) it was 1400 ± 200 nM; in [1] (setting [14]), 330 nM.
As to `O=C(c1ccc(F)cc1)c1c[nH]c(-c2ccccc2C(F)(F)F)n1` [12ib, (4-fluorophenyl)(2-(2-(trifluoromethyl)phenyl)-1 H-imidazol-4-yl)methanone], the IC50 in the data set with WM-164 (setting [10]), with B16-F1 (setting [11]), in the data set on DU 145 (setting [12]), in the data set on PC-3 (setting [5]), in the data set with PPC-1 (setting [6]) and with A375 (setting [13]) was > 10000 nM in each case. For the same molecule, the IC50 (in data set [1] (setting [15]); with LNCaP (setting [9])) was > 10000 nM throughout.
With `O=C(c1cc(O)c(O)c(O)c1)c1c[nH]c(-c2ccc(Cl)cc2)n1` [13fa, (2-(4-chlorophenyl)-1H-imidazol-4-yl)(3,4,5-trihydroxyphenyl)methanone], the IC50 is 10000 nM in the data set on DU 145 (setting [12]); 10000 nM with PC-3 (setting [5]); > 10000 nM in the data set with PPC-1 (setting [6]); 3890 nM in data set [1] (setting [15]); 10000 nM in the data set on LNCaP (setting [9]).
With `O=C(c1ccc2[nH]ccc2c1)c1csc(-c2cc3ccccc3[nH]2)n1` [compound 21, (2-(1H-indol-2-yl)thiazol-4-yl)(1H-indol-5-yl)methanone], the IC50 in the data set on WM-164 (WM164, Table 6A, read-out: IC50 (nM), WM164) was found to be 408 nM; with B16-F1 (Mus musculus, B16-F1; Table 6A; read-out: IC50 (nM), B16-F1), 924 nM; in the data set on DU 145 (DU-145, read-out: IC50 (nM), DU 145) it was 435 nM; in the data set with PC-3 (PC-3, read-out: IC50 (nM), PC-3) it was 403 nM; in the data set on PPC-1 (PPC-1, read-out: IC50 (nM), PPC-1), 216 nM; in the data set with A375 (Homo sapiens, A-375; Table 6A; read-out: IC50 (nM), A375), 383 nM. In addition, the IC50 is 76 to 116 nM in data set [1] (Prostate cell, summary of Tables 2, 3, 21, read-out: IC50 range over tested melanoma and prostate cell lines); 314 nM in the data set on LNCaP (read-out: IC50 (nM), LNCaP).
